US11021469B2, “Indoline sulfonamide inhibitors of DapE and NDM-1 and use of the same” (priority 2014, dated 2021)

The compounds below were run against NDM-1 (Klebsiella pneumoniae, UniProt C7C422) (assay: Inhibition of NDM-1 assay (CHROMACEF hydrolysis)). Conditions: pH 7, read-out: % NMD-1 Inhibition (5 μM).
Type: biochemical
Procedure: The ability of the compounds described herein to inhibit NDM-1 was determined in the following way.
A Substrate Working Solution was prepared from CRHROMACEF (6 μM) and Tween-20 (0.02% v/v) in water. An Enzyme Working Solution was prepared with NDM-1 (0.5 μg/mL), Hepes (0.1 M), pH 7 and Tween-20 (0.02% v/v). An Inhibitor Working Solution was prepared from 50 mM of the inhibitor in DMSO. The final assay conditions were 1 mL, Hepes (50 mM), pH 7, Tween-20 (0.02% v/v), CHROMACEF (3 uM), Δ35 NDM-1 (0.25 μg/mL). Extra zinc was omitted from these assays because extra ZnSO4 interferes with the metal binding groups in inhibitors.
An aliquot of the Inhibitor Working Solution was added to a polystyrene disposable cuvette to achieve a final concentration of 0-50 μM (in 1 mL final). Supplemental DMSO was added to reach a final volume of 4 μL. NDM-1 Working Solution (0.05 mL) was added to the cuvette and the inhibitor and enzyme were allowed to incubate for about 20 minutes. The reaction was initiated by added 0.5 mL Substrate Working Solution. The solution was mixed quickly, but gently to avoid bubble formation. CHROMACEF […] was recorded to start the reaction. The reaction was mixed fast, but gently. The change in absorbance ΔAbs442nm/min was measured for each inhibitor from the linear slope from each inhibitor concentration.

Chain of NDM-1 (C7C422 36-270 limits assumed): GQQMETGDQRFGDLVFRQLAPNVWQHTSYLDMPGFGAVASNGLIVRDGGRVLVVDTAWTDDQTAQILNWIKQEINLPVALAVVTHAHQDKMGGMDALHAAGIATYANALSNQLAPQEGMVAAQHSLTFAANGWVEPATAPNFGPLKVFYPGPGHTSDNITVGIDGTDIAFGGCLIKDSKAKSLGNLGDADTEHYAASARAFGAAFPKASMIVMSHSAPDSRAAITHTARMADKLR

Row | SMILES | inhibition at 5 µM
1 | CCNS(=O)(=O)c1cc(Br)cc2c1N(C(C)=O)CC2 | 16.8%
2 | CC(=O)N1CCc2cc(Br)cc(S(=O)(=O)NCCC(C)C)c21 | 62.7%
3 | CC(=O)N1CCc2cc(Br)cc(S(=O)(=O)NCc3ccccc3)c21 | 27.3%
